From paper PMC7594054, “Design, Synthesis and In Vitro Experimental Validation of Novel TRPV4 Antagonists Inspired by Labdane Diterpenes” (Marine Drugs, 2020)

Tests used:
rTRPV4 = target: T1, rTRPV4 (Rattus norvegicus, UniProt Q9ERZ8); assay: TRPV4 calcium influx assay (Fluo-4) in HEK-293 cells overexpressing rat recombinant TRPV4; format: cell-based; details: for IC50: against the effect of GSK1016790A (10 nM) after a 5-min pre-incubation, read-out: IC50 inh. TRPV4; for Efficacy %: as percent of the effect of ionomycin (4 µM), HEK-293 cells overexpressing rTRPV4, means ± SEM, n >= 3
T1 construct: expressed in transfected cells; host or cells: HEK-293
T1 sequence (Q9ERZ8 whole entry): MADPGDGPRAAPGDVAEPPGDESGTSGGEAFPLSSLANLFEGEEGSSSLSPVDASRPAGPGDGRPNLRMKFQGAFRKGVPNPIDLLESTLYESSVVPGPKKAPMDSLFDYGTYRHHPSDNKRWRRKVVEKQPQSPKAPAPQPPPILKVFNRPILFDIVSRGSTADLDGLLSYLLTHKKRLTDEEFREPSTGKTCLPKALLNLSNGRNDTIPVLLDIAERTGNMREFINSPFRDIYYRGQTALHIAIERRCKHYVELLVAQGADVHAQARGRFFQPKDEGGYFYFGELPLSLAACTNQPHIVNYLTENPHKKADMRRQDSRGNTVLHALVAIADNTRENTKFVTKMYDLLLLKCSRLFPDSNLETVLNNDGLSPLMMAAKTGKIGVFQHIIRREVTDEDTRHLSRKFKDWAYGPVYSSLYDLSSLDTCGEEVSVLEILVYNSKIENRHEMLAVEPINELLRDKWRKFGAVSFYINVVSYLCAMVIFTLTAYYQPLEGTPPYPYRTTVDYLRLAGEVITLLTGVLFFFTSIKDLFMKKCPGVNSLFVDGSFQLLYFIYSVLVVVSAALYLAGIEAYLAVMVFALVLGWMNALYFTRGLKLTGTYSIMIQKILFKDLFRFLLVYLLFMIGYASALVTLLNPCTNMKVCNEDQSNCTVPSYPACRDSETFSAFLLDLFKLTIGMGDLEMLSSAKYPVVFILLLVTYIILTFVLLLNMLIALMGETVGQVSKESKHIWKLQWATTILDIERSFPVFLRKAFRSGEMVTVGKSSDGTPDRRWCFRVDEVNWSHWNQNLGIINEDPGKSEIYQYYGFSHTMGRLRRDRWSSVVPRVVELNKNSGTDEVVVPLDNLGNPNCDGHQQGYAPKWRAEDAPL
Text: The interaction properties of all homodrimane-derived compounds 1–16, 18–19, and 22–25 with either TRPV type-4 or type-1 were studied in human embryonic kidney (HEK)-293 cells overexpressing either the rat recombinant type-4 (rTRPV4), which shares with the human orthologue ~95% of sequence identity, and the human recombinant type-1 (hTRPV1) channel, evaluating the changes in intracellular calcium levels. […] Cell fluorescence before and after the addition of various concentrations of test compounds was measured normalizing the effects against the response to ionomycin (4 μM). […] Dose-response curve fitting (sigmoidal dose-response variable slope) and parameter estimation were performed with Graph-Pad Prism8® (GraphPad Software Inc., San Diego, CA, USA). All determinations were performed at least in triplicate.

hTRPV1 = target: T2, hTRPV1 (Homo sapiens, UniProt Q8NER1); assay: TRPV1 calcium influx assay (Fluo-4) in HEK-293 cells overexpressing human recombinant TRPV1; format: cell-based; details: for IC50: read-out: IC50 inh TRPV1
T2 construct: expressed in transfected cells; host or cells: HEK-293
T2 sequence (Q8NER1 whole entry): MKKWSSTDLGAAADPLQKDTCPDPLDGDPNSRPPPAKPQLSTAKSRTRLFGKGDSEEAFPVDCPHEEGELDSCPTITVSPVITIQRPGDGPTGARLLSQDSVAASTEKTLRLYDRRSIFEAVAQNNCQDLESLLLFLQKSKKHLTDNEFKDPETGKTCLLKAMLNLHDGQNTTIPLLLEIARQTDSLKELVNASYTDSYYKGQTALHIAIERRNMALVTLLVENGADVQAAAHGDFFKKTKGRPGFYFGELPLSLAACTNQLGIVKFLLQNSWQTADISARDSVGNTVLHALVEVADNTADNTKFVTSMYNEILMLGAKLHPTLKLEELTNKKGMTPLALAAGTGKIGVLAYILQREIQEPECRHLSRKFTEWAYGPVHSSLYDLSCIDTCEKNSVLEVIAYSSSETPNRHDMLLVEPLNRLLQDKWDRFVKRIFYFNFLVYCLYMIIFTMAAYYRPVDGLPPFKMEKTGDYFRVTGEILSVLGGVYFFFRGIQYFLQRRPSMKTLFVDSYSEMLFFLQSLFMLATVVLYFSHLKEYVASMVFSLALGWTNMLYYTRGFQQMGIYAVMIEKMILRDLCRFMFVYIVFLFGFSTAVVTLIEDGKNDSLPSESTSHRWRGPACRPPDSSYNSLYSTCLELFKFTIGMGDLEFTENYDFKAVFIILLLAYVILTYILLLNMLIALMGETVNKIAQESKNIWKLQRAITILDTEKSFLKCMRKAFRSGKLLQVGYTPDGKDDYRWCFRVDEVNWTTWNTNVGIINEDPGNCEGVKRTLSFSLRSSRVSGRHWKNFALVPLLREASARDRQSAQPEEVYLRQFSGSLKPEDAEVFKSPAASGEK

HeLa cells = assay: MTT cytotoxicity assay, HeLa cells; format: cell-based, human; details: HeLa cells, 1, 5 and 25 μM, 24 h
Protocol: (§1) HeLa and A549 cells were seeded at 2 × 10^3 cells/cm^2 density in 24-well plastic plates. One day after plating, compounds 6 and 18 were added to the culture medium for 24 h. Cell viability was evaluated with the 3-(4,5-dimethylthiazol-2-yl)-2,5-diphenyltetrazolium bromide (MTT; 0.5 mg/mL; Sigma-Aldrich, Milan, Italy) reduction assay, and formazan salt formation upon MTT reduction by the mitochondria of living cells was detected spectrophotometrically at 595 nm according to published procedures.
(§2) Figure 2 Cell viability measured in HeLa and A549 cells treated for 24 h with increasing concentration of compound 6 (panel A, C) and 18 (panel B, D). Bar graphs show cell viability measured using the 3-(4,5-dimethylthiazol-2-yl)-2,5-diphenyltetrazolium bromide (MTT) assay. Data are expressed as optical density (OD) at 595 nm, normalized to control (vehicle). The bar is the standard error of the mean (SEM) on 3 independent determinations. Statistically significant differences were accepted when the p-value was at least ≤0.05.

A549 cells = assay: MTT cytotoxicity assay, A549 cells; format: cell-based, human; details: A549 cells, 1, 5 and 25 μM, 24 h
Protocol: as §1, §2

TRPV4 = details: cited from earlier work
TRPV1 = test system: TRPV1; design: method as in PMID 30507122; details: cited from earlier work

SMILES	activity on rTRPV4 in words (rTRPV4)	IC50 (rTRPV4) [µM]	Efficacy % (rTRPV4) [%]	IC50 (hTRPV1) [µM]	cytotoxic effect (cell viability, MTT) (HeLa cells)	cytotoxic effect (cell viability, MTT) (A549 cells)	further results
CC1(C)CCC[C@]2(C)[C@@H](CC(=O)NCc3ccc(Cl)c(Cl)c3)[C@](C)(O)CC[C@@H]12 [Compound 6, N-(3,4-dichlorobenzyl)-2-((1R,2R,4aS,8aS)-2-hydroxy-2,5,5,8a-tetramethyldecahydronaphthalen-1-yl)acetamide]	potent and selective TRPV4 antagonists	5.3 ± 0.3	<10	> 100	neither compound caused statistically-significant cytotoxic effects at any tested concentration	neither compound caused statistically-significant cytotoxic effects at any tested concentration	Efficacy % (hTRPV1; as percent of the effect of ionomycin (4 µM), HEK-293 cells overexpressing hTRPV1, means ± SEM, N >= 3): 16.9 ± 0.3%
C/C=C(\C)[C@H]1C(C)=C[C@H]2C[C@@H](C)C[C@@H](C(=O)O)[C@@H]2[C@@]1(C)C(=O)c1cccnc1 [onydecalin A]	–	–	–	–	–	–	IC50 (TRPV4; read-out: IC50 (TRPV4 antagonist)): 45.9 µM; activity towards TRPV1 in words (TRPV1): partial activity
CC1(C)CCC[C@]2(C)[C@@H](CC(=O)OCc3ccccc3)[C@](C)(O)CC[C@@H]12 [Compound 18, Benzyl 2-((1R,2R,4aS,8aS)-2-hydroxy-2,5,5,8a-tetramethyldecahydronaphthalen-1-yl)acetate]	potent and selective TRPV4 antagonists	5.41 ± 0.07	<10	–	neither compound caused statistically-significant cytotoxic effects at any tested concentration	neither compound caused statistically-significant cytotoxic effects at any tested concentration	–
C=C1CC[C@@H]2[C@](C)(CO)[C@H](O)CC[C@@]2(C)[C@@H]1/C=C/C1=CC(C(C[C@@H]2C(=C)CC[C@@H]3[C@](C)(CO)[C@H](O)CC[C@]32C)C2=CCOC2=O)OC1=O (stereo partly shown) [bisandrographolide A]	–	–	–	–	–	–	EC50 (TRPV4; read-out: EC50 (TRPV4 agonist)): 0.79 to 0.95 µM
CC1(C)CCC[C@]2(C)[C@@H](CCOC(=O)/C=C/c3ccc4c(c3)OCO4)[C@](C)(O)CC[C@@H]12 [Compound 23, 2-((1R,2R,4aS,8aS)-2-hydroxy-2,5,5,8a-tetramethyldecahydronaphthalen-1-yl)ethyl (E)-3-(benzo[d][1,3]dioxol-5-yl)acrylate]	–	> 100	<10	> 100	–	–	melting point: 115 to 116 °C
